Series [1] has as its system AMPKα1. Description: AMPK phosphorylation in cAMP-treated Hepa1-6 cells. In kind it is cell-based. The settings on record: Hepa1-6 cells with cAMP (0.2 mM).
Series [2] deals with AMPKα1 (AMP-activated protein kinase catalytic subunit alpha 1), FLAG-tagged, wild type (UniProt Q13131).
Target sequence in this assay (Q13131 whole entry, looked up, tested part not stated): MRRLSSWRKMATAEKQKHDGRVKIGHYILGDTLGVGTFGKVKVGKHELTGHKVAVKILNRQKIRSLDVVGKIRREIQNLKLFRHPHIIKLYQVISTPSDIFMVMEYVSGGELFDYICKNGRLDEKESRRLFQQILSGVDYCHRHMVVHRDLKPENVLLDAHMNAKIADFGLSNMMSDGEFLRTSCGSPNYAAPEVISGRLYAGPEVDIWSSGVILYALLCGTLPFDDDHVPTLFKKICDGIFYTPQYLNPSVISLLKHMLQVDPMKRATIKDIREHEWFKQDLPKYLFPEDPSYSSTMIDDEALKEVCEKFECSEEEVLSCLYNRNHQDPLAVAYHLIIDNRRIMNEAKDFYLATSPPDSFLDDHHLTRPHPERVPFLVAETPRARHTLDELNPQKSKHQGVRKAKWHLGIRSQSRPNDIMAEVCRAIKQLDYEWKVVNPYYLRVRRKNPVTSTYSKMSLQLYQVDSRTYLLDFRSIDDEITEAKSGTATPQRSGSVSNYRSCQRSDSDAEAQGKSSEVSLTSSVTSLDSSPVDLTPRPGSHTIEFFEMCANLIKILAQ
Series [3] deals with T1, peptide a1m (TPQRSGSISNYRSCQR).
T1 sequence: TPQRSGSISNYRSCQR

Series [4] addresses AMPKα1 (AMP-activated protein kinase catalytic subunit alpha 1), FLAG-tagged, wild type (UniProt Q13131). Description: cell-based or functional assay.
Target sequence in this assay (Q13131 whole entry): as the sequence (Q13131 whole entry, looked up, tested part not stated) above
Series [5] deals with AMPKα1 phosphorylated at S496 (UniProt Q13131).
Series [6] has as its target AMPKα2 phosphorylated at S491 (UniProt P54646).
The target of series [7] is AMPKα2 (AMP-activated protein kinase catalytic subunit alpha 2) (UniProt P54646).
The subject of another series is AMPKα2. In words: In vitro phosphorylation assay of AMPKα2 at S491 by PKA. Format: biochemical. As for the experimental part:
(§1) In vitro phosphorylation assays. Purified AMPKα1 protein was incubated with 1 μg of PKA catalytic subunit (Millipore) or 0.54 ug of AKT1 (abcam), 1× kinase buffer (Cell signaling) and 0.2 mM ATP at room temperature for the indicated time. To test the phosphorylation of PKA-mediated AMPK phosphorylation at S496/491 on a subunit phosphorylation at T172, AMPKα subunits were phosphorylated at S496/491 by PKA at 37° C. for 1 h, followed by the addition of 25 ng LKB1-STRAD-MO25 (Millipore), then incubated at room temperature for 30 min.

Series [8] has as its system AMPKα1. In words: In vitro phosphorylation assay of AMPKα1 at S496 by PKA or AKT. In kind it is biochemical. Conditions: in vitro assays. As for the experimental part:
as §1

Series [9] in a line: Viable MCF-7 breast cancer cells. In kind it is cell-based. The settings on record: 500 μM; read-out: reduction of viable MCF-7 cancer cells.
In series [10] the test system is human colon cancer Caco2 cells. Description: Growth of colon cancer Caco2 cells. Format: cell-based. Conditions: FIG. 25b.
Another series has as its system primary hepatocytes. Conditions: 10 μM, 16 h, versus control peptide TAT. As for the experimental part: Primary hepatocytes prepared from elderly mice (78 weeks of age) were treated with 10 μM of control peptide TAT or Pa496m for 16 h.
For series [11], the system named is human primary hepatocytes.
The subject of the next series is HFD-fed mice. Description: Intraperitoneal treatment of HFD-fed mice. Format: in vivo, mouse. The settings on record: intraperitoneal 10 nMole/g/day for 5 days, then 15 nMole/g/day for another 5 days.

The values that follow come from patent US20250281572A1, “COMPOSITIONS AND METHODS FOR TREATING AND PREVENTING METABOLIC DISORDERS” (The Johns Hopkins University, priority 2022, published 2025).

No end group written: not given here.

AMPKβ1, FLAG-tagged, sequence (Q9R078 2-270): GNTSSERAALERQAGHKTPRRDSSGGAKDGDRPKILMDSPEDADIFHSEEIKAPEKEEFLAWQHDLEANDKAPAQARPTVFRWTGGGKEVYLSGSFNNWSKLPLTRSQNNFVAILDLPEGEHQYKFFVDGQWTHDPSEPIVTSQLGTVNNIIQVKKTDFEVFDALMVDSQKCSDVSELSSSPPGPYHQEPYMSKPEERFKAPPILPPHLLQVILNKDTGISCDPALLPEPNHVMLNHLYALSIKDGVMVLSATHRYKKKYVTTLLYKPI
AMPKγ1, FLAG-tagged, sequence (O54950 whole entry): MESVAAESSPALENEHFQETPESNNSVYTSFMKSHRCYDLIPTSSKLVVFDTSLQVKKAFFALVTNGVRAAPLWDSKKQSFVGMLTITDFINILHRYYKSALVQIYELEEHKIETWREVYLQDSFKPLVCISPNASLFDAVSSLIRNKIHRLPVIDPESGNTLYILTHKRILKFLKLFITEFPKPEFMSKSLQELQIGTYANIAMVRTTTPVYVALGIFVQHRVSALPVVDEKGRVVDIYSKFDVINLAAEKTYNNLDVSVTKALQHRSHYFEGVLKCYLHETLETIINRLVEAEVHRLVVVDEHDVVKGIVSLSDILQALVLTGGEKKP
AMPKα1 phosphorylated at S496, sequence (Q13131 whole entry, looked up): as the sequence (Q13131 whole entry, looked up, tested part not stated) above
AMPKα2 phosphorylated at S491, sequence (P54646 whole entry, looked up): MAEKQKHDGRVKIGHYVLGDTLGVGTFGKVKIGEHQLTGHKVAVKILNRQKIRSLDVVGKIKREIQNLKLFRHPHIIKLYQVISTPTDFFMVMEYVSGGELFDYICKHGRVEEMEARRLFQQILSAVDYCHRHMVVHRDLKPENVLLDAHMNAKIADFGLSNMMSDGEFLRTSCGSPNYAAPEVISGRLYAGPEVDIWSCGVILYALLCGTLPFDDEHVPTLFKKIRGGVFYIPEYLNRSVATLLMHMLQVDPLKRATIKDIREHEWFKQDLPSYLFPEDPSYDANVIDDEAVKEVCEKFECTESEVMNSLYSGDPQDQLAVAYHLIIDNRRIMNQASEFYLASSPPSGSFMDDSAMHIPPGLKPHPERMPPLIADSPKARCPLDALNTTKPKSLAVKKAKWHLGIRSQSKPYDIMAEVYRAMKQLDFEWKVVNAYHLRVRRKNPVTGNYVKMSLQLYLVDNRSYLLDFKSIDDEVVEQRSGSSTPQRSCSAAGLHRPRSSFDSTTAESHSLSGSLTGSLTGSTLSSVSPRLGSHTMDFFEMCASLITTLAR
AMPKα2 (AMP-activated protein kinase catalytic subunit alpha 2), sequence (P54646 whole entry, looked up, tested part not stated): as the sequence (P54646 whole entry, looked up) above

Regarding `O=S(=O)(NCCNC/C=C/c1ccc(Br)cc1)c1cccc2cnccc12` [Peptide H89], the “phosphorylation of AMPKαT172 and MFF” value in the series with AMPKα1 [1] is recorded as “reversed the negative effect of cAMP”.
In the case of AKT1 (abcam), the “in vitro phosphorylation of AMPKα1 at S496” value in series [2] was “PKA- or AKT-mediated phosphorylation of AMPKα1 at S496 in in vitro assays”. The “in vitro phosphorylation of AMPKα1 at S496 by AKT” value in series [3] is “this peptide could effectively antagonize PKA- or AKT-mediated phosphorylation of AMPKα1 at S496 in in vitro assays”.
In series [4], AMPKβ1, FLAG-tagged gave an AMPK enzymatic activity (% of enzymatic activity lost) of 80.
AMPKγ1, FLAG-tagged returned an AMPK enzymatic activity (% of enzymatic activity lost) in [4] of 80.
As to LKB1-STRAD-MO25 (Millipore), the “in vitro phosphorylation of AMPKα at T172” value in series [5] and in [6] was “the phosphorylation at these sites decreased the phosphorylation of AMPKα at T172 by upstream kinase LKB1” in each case.
As to PKA catalytic subunit (Millipore), in [2], the “in vitro phosphorylation of AMPKα1 at S496” value is “PKA can directly phosphorylate AMPKα1 at S496”. Also, in series [3], the “in vitro phosphorylation of AMPKα1 at S496 by PKA” value is “this peptide could effectively antagonize PKA- or AKT-mediated phosphorylation of AMPKα1 at S496 in in vitro assays” and the “in vitro phosphorylation of AMPKα2 at S491 by PKA” value was “this targeting-peptide a1m could antagonize the phosphorylation of AMPKα2 at S491 by PKA as well”. Also, the “in vitro phosphorylation of AMPKα2 at S491” value in series [7] was “PKA can directly phosphorylate AMPKα1 at S496 (FIGS. 3a, b) and AMPKα2 at S491 (FIG. 3c)”.
As to “TPQRSGSISNYRSCQR [a1m, corresponds to mouse AMPKα1 from 490-505 a.a]”, the “phosphorylation of AMPKα2 at S491 by PKA” value with AMPKα2 is “could antagonize”. Further, the “PKA- or AKT-mediated phosphorylation of AMPKα1 at S496” value in the series on AMPKα1 [8] is “effectively antagonize”.
Consider YGRKKRRQRRRTPQRSCSAAGLHR [Pa2-491], for which the cytotoxicity in series [9] was more than 90%. The “growth of colon carcinoma Caco2 cells” value in series [10] is listed as “could inhibit”.
As for YGRKKRRQRRRTPQRSGSISNYRSCQR [Pa496m], in [9], the cytotoxicity is more than 90%. Further, the “fat content in hepatocytes” value in the series on primary hepatocytes is recorded as “significantly decreased”.
In the case of YGRKKRRQRRRTPQRSGSVSNYRSCQR [Pa496h], the cytotoxicity in [9] was more than 90%. In series [11], the “decrease of hepatocytes' viability” value came out at 19.8%. For the same compound, in series [11] (100 μM), the “viability of human primary hepatocytes” value is given as “did not significantly affected”. In the series with HFD-fed mice, the “injury to the liver” value is recorded as “without causing injury to the liver”. Moreover, the “growth of colon carcinoma Caco2 cells” value in series [10] is given as “could inhibit”.
